Some results are limits rather than exact numbers.

Experiment [1] has as its system PBMCs. Put plainly: LPS-induced IL-8 release in PBMC cells (assay b). Format: cell-based, human. The settings on record: Homo sapiens, PBMC; LPS-stimulated PBMCs; read-out: IC50 Values for Inhibition of Cytokine Release, PBMCs IL-8. A digest of the protocol: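 Cytokines (TNFα, IL-8) in supernatants were quantified by sandwich ELISA after a 24 h challenge with 1 ng/mL E. coli LPS at 37° C, 5% CO2. Healthy-donor PBMCs had been exposed to compound for 2 h beforehand. IC50 values were fitted from the concentration-response curves.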

Experiment [2] has as its target p38 MAPKα isoform (MAPK14) (Homo sapiens (Human), UniProt Q16539). Kind of experiment: p38 MAPKα enzyme inhibition (FRET, Z-LYTE, Method 2). It counts as biochemical. A digest of the protocol:
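Z-LYTE FRET: p38 MAPKα (80 ng/mL for Method 1, 200 ng/mL for Method 2, pre-dilution) preincubated 2 hr RT with compound (4–0.004 μg/mL solutions), activity read via MAPKAP-K2 phosphorylation after 1 hr RT and 1 hr protease development. Coumarin/fluorescein ratio gives phosphorylation; % inhibition versus uninhibited control, IC50 from concentration-response curve.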

Experiment [3] concerns the target c-Src (Homo sapiens (Human), UniProt P12931). Kind of experiment: c-Src enzyme inhibition (FRET, Z-LYTE). It counts as biochemical. A digest of the protocol:
(§1)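 Each kinase is exposed to test compound for 2 hr at RT before substrate and ATP (pre-mix levels: c-Src 800 μM, Syk 60 μM) start a 1 hr reaction. A 1 hr protease step removes signal from non-phosphorylated peptide; inhibition against uninhibited control yields IC50.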

In experiment [4] the target is GSK 3α (Homo sapiens (Human), UniProt P49840). Kind of experiment: GSK 3α enzyme inhibition (FRET, Z-LYTE, Method 2). Format: biochemical. The settings on record: read-out: IC50 Values for Enzyme Inhibition, GSK3α. A digest of the protocol:
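Recombinant human GSK3α was preincubated with compound (stocks 4, 0.4, 0.04 or 0.004 μg/mL) at RT, 2 hr for Method 1 and 105 min for Method 2. FRET peptide (8 μM stock) and ATP (40 μM stock) were added for 1 hr, then protease development for 1 hr. IC50 was taken from concentration–response curves.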

The subject of experiment [5] is PBMCs. Kind of experiment: Cell mitosis assay in PBMCs (assay g). Format: cell-based. The settings on record: Homo sapiens, PBMC, test compound 5 μg/mL. The method, boiled down:
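Metaphase arrest with 0.1 μg/mL demecolcine during the final 2 hr of a 20 hr compound exposure, which follows 48 hr of 2% PHA stimulation of healthy-donor human PBMCs. Mitotic lymphocytes counted by flow cytometry (anti-phospho-histone 3 plus propidium iodide). Inhibition expressed relative to 0.5% DMSO.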

Experiment [6] addresses Syk (Homo sapiens (Human), UniProt P43405). Kind of experiment: Syk enzyme inhibition (FRET, Z-LYTE). Format: biochemical. The method, boiled down:
as §1

The subject of experiment [7] is PBMCs. Put plainly: IFN gamma release in CD3/CD28 stimulated PBMC cells (assay c). The settings on record: Homo sapiens, read-out: IC50 Values for Inhibition of Cytokine Release, PBMCs IFNγ. Format: cell-based. The method, boiled down: (§2)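 Healthy-donor PBMCs (density-gradient isolated) stimulated on plates pre-coated with anti-CD3 (0.3 μg/mL) and anti-CD28 (3 μg/mL), with compound, for 3 days under normal culture conditions. IL-2 and IFN gamma in supernatants measured by sandwich ELISA; IC50 from dose-response curve.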

For experiment [8], the system named is PBMCs. Put plainly: IL-2 release in CD3/CD28 stimulated PBMC cells (assay c). It counts as cell-based. The settings on record: Homo sapiens, read-out: IC50 Values for Inhibition of Cytokine Release, PBMCs IL-2. A digest of the protocol:
as §2

GSK 3α, sequence (P49840 whole entry): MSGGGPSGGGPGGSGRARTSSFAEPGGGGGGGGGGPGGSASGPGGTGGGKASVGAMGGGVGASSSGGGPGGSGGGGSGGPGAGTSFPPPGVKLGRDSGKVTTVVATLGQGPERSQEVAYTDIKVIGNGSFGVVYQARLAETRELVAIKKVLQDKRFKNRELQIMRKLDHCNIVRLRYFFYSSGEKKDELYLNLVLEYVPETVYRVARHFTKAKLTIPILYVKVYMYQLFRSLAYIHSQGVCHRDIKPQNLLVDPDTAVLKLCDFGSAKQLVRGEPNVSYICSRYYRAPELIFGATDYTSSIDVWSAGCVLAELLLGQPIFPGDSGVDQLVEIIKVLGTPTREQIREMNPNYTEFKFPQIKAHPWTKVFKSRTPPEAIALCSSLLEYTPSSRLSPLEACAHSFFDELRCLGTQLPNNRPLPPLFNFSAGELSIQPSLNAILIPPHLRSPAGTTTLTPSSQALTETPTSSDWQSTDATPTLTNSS
c-Src, sequence (P12931 whole entry, looked up): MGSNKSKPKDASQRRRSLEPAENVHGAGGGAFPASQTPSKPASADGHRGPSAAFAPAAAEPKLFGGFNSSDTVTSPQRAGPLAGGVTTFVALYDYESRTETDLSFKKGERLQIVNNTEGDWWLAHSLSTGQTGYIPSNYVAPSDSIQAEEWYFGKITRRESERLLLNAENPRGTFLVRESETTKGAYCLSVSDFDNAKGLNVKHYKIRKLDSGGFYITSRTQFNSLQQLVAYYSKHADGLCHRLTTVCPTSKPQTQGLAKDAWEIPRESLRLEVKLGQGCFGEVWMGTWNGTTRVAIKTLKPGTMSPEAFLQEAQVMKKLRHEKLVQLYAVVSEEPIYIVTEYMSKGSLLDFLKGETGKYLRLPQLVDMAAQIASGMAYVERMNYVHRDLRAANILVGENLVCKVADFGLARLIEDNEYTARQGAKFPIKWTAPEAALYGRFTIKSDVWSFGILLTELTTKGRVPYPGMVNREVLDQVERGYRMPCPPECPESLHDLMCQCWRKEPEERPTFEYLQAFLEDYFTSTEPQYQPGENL
p38 MAPKα isoform (MAPK14), sequence (Q16539 whole entry, canonical isoform): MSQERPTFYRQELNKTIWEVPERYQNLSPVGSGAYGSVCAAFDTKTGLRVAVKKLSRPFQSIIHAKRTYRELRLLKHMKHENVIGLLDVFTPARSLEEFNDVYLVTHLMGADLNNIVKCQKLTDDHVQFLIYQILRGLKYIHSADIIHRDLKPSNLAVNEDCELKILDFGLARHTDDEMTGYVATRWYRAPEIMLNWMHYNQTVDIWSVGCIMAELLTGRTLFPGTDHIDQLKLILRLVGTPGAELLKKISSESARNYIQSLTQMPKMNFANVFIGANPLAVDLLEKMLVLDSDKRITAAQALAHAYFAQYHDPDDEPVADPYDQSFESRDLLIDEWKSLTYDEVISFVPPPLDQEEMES

What is called IC50 is the concentration needed to halve the response being measured. Usually inhibition stands for the relative decrease from the control value, in per cent. In the case of `COc1c(CC(N)=O)cc(C(C)(C)C)cc1NC(=O)Nc1ccc(Oc2ccnc(Nc3ccn(C)n3)c2)c2ccccc12` [38(o), 2-(5-(tert-Butyl)-2-methoxy-3-(3-(4-((2-((1-methyl-1H-pyrazol-3-yl)amino)pyridin-4-yl)oxy)naphthalen-1-yl)ureido)phenyl)acetamide], the IC50 in experiment [1] was 1.3 nM; in experiment [2] it was 9 nM; in experiment [3] it was 47 nM; in experiment [4], 1.05 µM; in experiment [6], 381 nM; in experiment [7] it was 7.8 nM. The IC50 in experiment [8] was determined as 60.8 nM. The same compound gave an inhibition at 5 µg/mL in experiment [5] of 83.2%.

Consider `COc1c(CNC(C)=O)cc(C(C)(C)C)cc1NC(=O)Nc1ccc(Oc2ccnc(NCc3ccccn3)c2)c2ccccc12` [38(q), N-(5-(tert-Butyl)-2-methoxy-3-(3-(4-((2-((pyridin-2-ylmethyl)amino)pyridin-4-yl)oxy)naphthalen-1-yl)ureido)benzyl)acetamide], for which the IC50 was 1.4 nM in experiment [1]; 6 nM in experiment [2]; 383 nM in experiment [3]; 1.5 µM in experiment [4]; above 1620 nM in experiment [6]; 26.1 nM in experiment [7]. For the same compound, in experiment [8], the IC50 amounted to 443 nM. In experiment [5], this compound returned an inhibition at 5 µg/mL of 82.1%.

For `COCCOCCOCCOc1cc(Nc2cc(Oc3ccc(NC(=O)Nc4cc(C(C)(C)C)cc(P(C)(C)=O)c4OC)c4ccccc34)ccn2)cc(OC)c1` [Example 2, 1-(5-(tert-Butyl)-3-(dimethylphosphoryl)-2-methoxyphenyl)-3-(4-((2-((3-methoxy-5-(2-(2-(2-methoxyethoxy)ethoxy)ethoxy)phenyl)amino)pyridin-4-yl)oxy)naphthalen-1-yl)urea], the concentration for half-maximal inhibition (IC50) in experiment [1] was 1 nM; in experiment [2] it was 51 nM; in experiment [3] it was 11 nM; in experiment [4] it was 2.81 µM; in experiment [6], 53 nM; in experiment [7] it was 2.9 nM. For the same compound, the 50% inhibitory concentration (IC50) in experiment [8] is 76.1 nM. The same compound returned an inhibition at 5 µg/mL in experiment [5] of 58.9%.

For `C#Cc1cc(Nc2cc(Oc3ccc(NC(=O)Nc4cc(C(C)(C)C)cc(P(C)(C)=O)c4OC)c4ccccc34)ccn2)cc(C(=O)NCCOCCOCCOC)c1` [Example 3, 3-((4-((4-(3-(5-(tert-Butyl)-3-(dimethylphosphoryl)-2-methoxyphenyl)ureido)naphthalen-1-yl)oxy)pyridin-2-yl)amino)-5-ethynyl-N-(2-(2-(2-methoxyethoxy)ethoxy)ethyl)benzamide], the IC50 in experiment [1] was 2.8 nM; in experiment [2] it was 91 nM; in experiment [3], 38 nM; in experiment [4], 4.9 µM; in experiment [6], above 1220 nM; in experiment [7], 18.4 nM. In addition, the 50% inhibitory concentration (IC50) in experiment [8] is 181 nM. Moreover, in experiment [5], the inhibition at 5 µg/mL turned out to be 29.4%.

For the compound `COCCOCCOCCOc1cc(Nc2nccc(Oc3ccc(NC(=O)Nc4cc(C(C)(C)C)cc(C(=O)NCCN5CCOCC5)c4OC)c4ccccc34)n2)cc(OC)c1` [Example 8, 5-(tert-Butyl)-2-methoxy-3-(3-(4-((2-((3-methoxy-5-(2-(2-(2-methoxyethoxy)ethoxy)-ethoxy)phenyl)amino)pyrimidin-4-yl)oxy)naphthalen-1-yl)ureido)-N-(2-morpholinoethyl)-benzamide], the IC50 turned out to be 1.3 nM in experiment [1]; 188 nM in experiment [2]; 14 nM in experiment [3]; 0.788 µM in experiment [4]; 42 nM in experiment [6]; 2.2 nM in experiment [7]. Also, the 50% inhibitory concentration (IC50) in experiment [8] is 41.4 nM. In experiment [5], this compound had an inhibition at 5 µg/mL of 58.1%.

`COCCOCCOCCOc1cc(Nc2cc(Oc3ccc(NC(=O)Nc4cc(C(C)(C)C)cc(S(C)(=O)=O)c4OC)c4ccccc34)ccn2)cc(OC)c1` [Example 9, 1-(5-(tert-Butyl)-2-methoxy-3-(methylsulfonyl)phenyl)-3-(4-((2-((3-methoxy-5-(2-(2-(2-methoxyethoxy)ethoxy)ethoxy)phenyl)amino)pyridin-4-yl)oxy)naphthalen-1-yl)urea]: the IC50 in experiment [1] is 3.5 nM; in experiment [2] it was 290 nM; in experiment [3], 52 nM; in experiment [4], above 10.7 µM; in experiment [6], 233 nM; in experiment [7] it was 9.4 nM. Besides, the IC50 in experiment [8] was determined as 42.7 nM. In addition, testing at 5 µg/mL in experiment [5] gave an inhibition of 50.8%.

`COCCOCCOCCOc1cc(Nc2cc(Oc3ccc(NC(=O)Nc4cc(C(C)(C)C)cc(P(C)(C)=O)c4)c4ccccc34)ccn2)cc(OC)c1` [Example 10, 1-(3-(tert-Butyl)-5-(dimethylphosphoryl)phenyl)-3-(4-((2-((3-methoxy-5-(2-(2-(2-methoxy-ethoxy)ethoxy)ethoxy)phenyl)amino)pyridin-4-yl)oxy)naphthalen-1-yl)urea]: the IC50 in experiment [1] is 2 nM; in experiment [2] it was 45 nM; in experiment [3] it was 16 nM; in experiment [4] it was above 8.34 µM; in experiment [6] it was above 887 nM; in experiment [7] it was 31.3 nM. The half-maximal inhibitory concentration (IC50) in experiment [8] was 88.6 nM. For the same compound, at 5 µg/mL the inhibition in experiment [5] was 39.3%.

In the case of `COc1c(NC(=O)Nc2ccc(Oc3ccnc(Nc4ccccc4)c3)c3ccccc23)cc(C(C)(C)C)cc1P(C)(C)=O` [Example 11, 1-(5-(tert-Butyl)-3-(dimethylphosphoryl)-2-methoxyphenyl)-3-(4-((2-(phenylamino)pyridin-4-yl)oxy)naphthalen-1-yl)urea], the concentration for half-maximal inhibition (IC50) in experiment [1] came to 2.3 nM; in experiment [2], 141 nM; in experiment [3], 32 nM; in experiment [4], 3.83 µM; in experiment [6], 186 nM; in experiment [7], 10.5 nM. Moreover, in experiment [8], the IC50 stood at 80.6 nM. In experiment [5], this compound had an inhibition at 5 µg/mL of 61%.

On to `COc1c(CC(N)=O)cc(C(C)(C)C)cc1NC(=O)Nc1ccc(Oc2ccnc(Nc3ccccc3)c2)c2ccccc12` [Example 13, 2-(5-(tert-Butyl)-2-methoxy-3-(3-(4-((2-(phenylamino)pyridin-4-yl)oxy)naphthalen-1-yl)ureido)phenyl)acetamide], for which the IC50 came out at 6.4 nM in experiment [1]; 108 nM in experiment [2]; 239 nM in experiment [3]; 7.58 µM in experiment [4]; 1390 nM in experiment [6]; 50.4 nM in experiment [7]. Also, in experiment [8], the concentration for half-maximal inhibition (IC50) worked out at 204 nM. In experiment [5], this compound gave an inhibition at 5 µg/mL of 13.9%.

Take `COc1c(NC(=O)Nc2ccc(Oc3ccnc(Nc4ccccc4)c3)c3ccccc23)cc(C(C)(C)C)cc1C(=O)NCCN1CCOCC1` [Example 14, 5-(tert-Butyl)-2-methoxy-N-(2-morpholinoethyl)-3-(3-(4-((2-(phenylamino)pyridin-4-yl)oxy)naphthalen-1-yl)ureido)benzamide]: the half-maximal inhibitory concentration (IC50) was 3.3 nM in experiment [1]; 392 nM in experiment [2]; 135 nM in experiment [3]; above 10.1 µM in experiment [4]; 364 nM in experiment [6]; 16.3 nM in experiment [7]. Besides, the IC50 in experiment [8] stood at 39.2 nM. This compound returned an inhibition at 5 µg/mL in experiment [5] of 51.9%.
